Source: article PMC4225773 (Bioorganic & medicinal chemistry letters, 2014)
≈ marks a conversion by molar mass, not a printed value. Like-named read-outs stand apart in the source and are kept apart here. Marks after values point to notes of the source that are not given here.

Columns and labels:
[1] = tested on: Intra-macrophage Amastigote Stage of L. donovani
[2] = in vitro; conditions: human
[3] = tested on: promastigote stage of L. donovani; assay: Alamar blue
[4] = tested on: HDAC6; conditions: cited from earlier work; for IC50: read-out: HDAC6 IC50, NI = No Inhibition at maximum tested concentration of 10 µM (percentage inhibition < 20%); for HDAC6 % inhibition at 10 µM: given if the IC50 was above 10 µM
[5] = tested on: HDAC8; conditions: read-out: HDAC8 IC50; NI = No Inhibition at maximum tested concentration of 10 µM (percentage inhibition < 20%); cited from earlier work
[6] = Cytotoxicity to uninfected THP1 macrophage cells; conditions: human
[7] = tested on: Intra-macrophage Amastigote Stage of L. donovani; assay: Amastigote-macrophage assay; conditions: for Cytotoxic activity against intra-macrophage amastigote (in words): THP1 host cells, 3HP values in Table S1 (not available); for Potency enhancement, intra-macrophage amastigote relative to axenic amastigote: comparing Tables 1 and 2
[8] = tested on: axenic amastigote of L. donovani; assay: Alamar blue; assay type: cell-based
[9] = L. donovani promastigote, maximum concentration tested 40 µg/mL
[10] = uninfected THP1 macrophage cells
[11] = L. donovani axenic amastigote, maximum tested concentration 40 µg/mL

SMILES	IC50 [4]	IC50 [5]	IC50 [6, 10]	further results
C[C@@H]1[C@H](O)[C@@H](C)/C=C/C=C/C=C/C=C/C=C/C=C/C=C/[C@H](O[C@@H]2O[C@H](C)[C@@H](O)[C@H](N)[C@@H]2O)C[C@@H]2O[C@](O)(C[C@@H](O)C[C@@H](O)[C@H](O)CC[C@@H](O)C[C@@H](O)CC(=O)O[C@H]1C)C[C@H](O)[C@H]2C(=O)O [Amphotericin B]				Cytotoxic activity against intra-macrophage amastigote (in words) [1]: potently cytotoxic; IC50 [2]: > 10 µg/mL; IC50 ([3]; Leishmania donovani, read-out: Promastigote IC50): 0.4 µg/mL (≈ 0.433 µM)
Oc1cccnc1O [Compound 1a]	> 10 µM	> 10 µM		Cytotoxicity to promastigote stage (in words) [3, 9]: inactive
Oc1ccc[nH]c1=S [Compound 1b]	0.681 ± 0.11 µM	3.68 ± 1.2 µM	> 10 µg/mL	Cytotoxicity to promastigote stage (in words) [3, 9]: weakly cytotoxic
O=c1c(O)cccn1Cc1ccccc1 [Compound 2a]	> 10 µM	> 10 µM		
Oc1cccn(Cc2ccccc2)c1=S [Compound 2b]	0.457 ± 0.027 µM	1.27 ± 0.2 µM	> 10 µg/mL	
O=c1c(O)cccn1Cc1ccc(-c2ccccc2)cc1 [Compound 3a]	> 10 µM	> 10 µM		Cytotoxic activity against intra-macrophage amastigote (in words) [7]: moderate to good cytotoxic activities
Oc1cccn(Cc2ccc(-c3ccccc3)cc2)c1=S [Compound 3b]	0.847 ± 0.188 µM	4.28 ± 1.55 µM	> 10 µg/mL	Potency enhancement, intra-macrophage amastigote relative to axenic amastigote [7]: 5- to 25 fold
N#Cc1ccc(-c2ccc(Cn3cccc(O)c3=O)cc2)cc1 [Compound 4a]	> 10 µM	> 10 µM		Cytotoxicity to axenic amastigote (in words) [8, 11]: about equipotent to both stages of L. donovani; Cytotoxic activity against intra-macrophage amastigote (in words) [7]: moderately active
N#Cc1ccc(-c2ccc(Cn3cccc(O)c3=S)cc2)cc1 [Compound 4b]	0.957 ± 0.159 µM	2.08 ± 0.459 µM	> 10 µg/mL	Potency enhancement, intra-macrophage amastigote relative to axenic amastigote [7]: 5- to 25 fold
N#Cc1cccc(-c2ccc(Cn3cccc(O)c3=O)cc2)c1 [Compound 5a]	> 10 µM	> 10 µM		Cytotoxic activity against intra-macrophage amastigote (in words) [7]: moderate to good cytotoxic activities
N#Cc1cccc(-c2ccc(Cn3cccc(O)c3=S)cc2)c1 [Compound 5b]		1.7 ± 0.717 µM	> 10 µg/mL	HDAC6 % inhibition at 10 µM [4]: 44% ^†
N#Cc1ccccc1-c1ccc(Cn2cccc(O)c2=O)cc1 [Compound 6a]	> 10 µM	> 10 µM		
N#Cc1ccccc1-c1ccc(Cn2cccc(O)c2=S)cc1 [Compound 6b]	0.372 ± 0.035 µM	1.91 ± 0.771 µM	> 10 µg/mL	Cytotoxic activity against intra-macrophage amastigote (in words) [7]: inactive
Cc1ccc(-c2ccc(Cn3cccc(O)c3=O)cc2)cc1 [Compound 7a]	> 10 µM	> 10 µM		
Cc1ccc(-c2ccc(Cn3cccc(O)c3=S)cc2)cc1 [Compound 7b]	0.454 ± 0.042 µM	0.8 ± 0.304 µM	> 10 µg/mL	
Cc1cccc(-c2ccc(Cn3cccc(O)c3=O)cc2)c1 [Compound 8a]	> 10 µM	> 10 µM		

SMILES	IC50 [4]	IC50 [5]	IC50 [6, 10]	further results
Cc1cccc(-c2ccc(Cn3cccc(O)c3=S)cc2)c1 [Compound 8b]	0.812 ± 0.286 µM	2.5 ± 1.18 µM	> 10 µg/mL	Cytotoxic activity against intra-macrophage amastigote (in words) [7]: inactive
Cc1ccccc1-c1ccc(Cn2cccc(O)c2=O)cc1 [Compound 9a]	> 10 µM	> 10 µM		
Cc1ccccc1-c1ccc(Cn2cccc(O)c2=S)cc1 [Compound 9b]	0.306 ± 0.069 µM	3.1 ± 1.65 µM	> 10 µg/mL	
CN(C)c1ccc(-c2ccc(Cn3cccc(O)c3=O)cc2)cc1 [Compound 10a]	> 10 µM	> 10 µM		Cytotoxicity to axenic amastigote (in words) [8, 11]: about equipotent to both stages of L. donovani
CN(C)c1ccc(-c2ccc(Cn3cccc(O)c3=S)cc2)cc1 [Compound 10b]	> 10 µM	2.86 ± 0.944 µM	> 10 µg/mL	Potency enhancement, intra-macrophage amastigote relative to axenic amastigote [7]: 5- to 25 fold
CN(C)c1ccc(-c2ccc(Cn3cccc(O)c3=O)cc2)cn1 [Compound 11a]	> 10 µM	> 10 µM		
CN(C)c1ccc(-c2ccc(Cn3cccc(O)c3=S)cc2)cn1 [Compound 11b]	2.39 ± 0.458 µM	> 10 µM	> 10 µg/mL	
O=c1c(O)cccn1Cc1cn(-c2ccccc2)nn1 [Compound 12a]	> 10 µM	> 10 µM		
Oc1cccn(Cc2cn(-c3ccccc3)nn2)c1=S [Compound 12b]		1.57 ± 1.07 µM	> 10 µg/mL	HDAC6 % inhibition at 10 µM [4]: 41% ^†
CN(C)c1ccc(-n2cc(Cn3cccc(O)c3=O)nn2)cc1 [Compound 13a]	> 10 µM	> 10 µM		Cytotoxic activity against intra-macrophage amastigote (in words) [7]: moderate to good cytotoxic activities
CN(C)c1ccc(-n2cc(Cn3cccc(O)c3=S)nn2)cc1 [Compound 13b]	1.02 ± 0.099 µM	1.87 ± 0.723 µM	> 10 µg/mL	
COc1ccc(Cn2ccc3ccc(C(=O)NO)cc32)cc1 [PCI-34051, reference compound]				IC50 [6]: > 10 µg/mL; Cytotoxic activity against intra-macrophage amastigote (in words) [7]: inactive; Cytotoxicity to promastigote stage (in words) [3, 9]: minimal effect
N=C(N)c1ccc(OCCCCCOc2ccc(C(=N)N)cc2)cc1 [Pentamidine, pentamidine]				Cytotoxic activity against intra-macrophage amastigote (in words) [1]: potently cytotoxic; IC50 [2]: > 10 µg/mL
O=C(CCCCCCC(=O)Nc1ccccc1)NO [SAHA, suberoylanilide hydroxamic acid, reference compound]				Cytotoxicity to axenic amastigote (in words) [8]: non-toxic; Cytotoxicity to promastigote stage (in words) [3]: minimal effect
CN1CCc2c(c3ccccc3n2Cc2ccc(C(=O)NO)cc2)C1 [Tubastatin A, reference compound]			> 10 µg/mL	
